The text below walks through data of US10961192B2, “(R)-4-hydroxy-2-oxo-1-pyrrolidineacetamide crystal form, preparation method therefor, and application thereof” (CHONGQING RUZER PHARMACEUTICAL COMPANY LIMITED, priority 2017, dated 2021).

Common to all, as to type: physicochemical
The nature of data set [1]: Stability test under high temperature conditions (60° C., 5 days), related substance. Conditions: for changes of the related substances in 5 days: high temperature of 60° C.; for Day 0: Related substance / Day 5: Related substance / Related material changes: 60° C.; for Day 0: Related substance: day 0, average of 5 groups; for Day 5: Related substance: day 5, average of 5 groups; for Related material changes: day 5 versus day 0. Here is the method:
Stability test of the crystalline form I of (R)-4-hydroxy-2-oxo-1-pyrrolidineacetamideunder high temperature conditions. The crystalline form I of (R)-4-hydroxy-2-oxo-1-pyrrolidinylacetamide prepared in Examples 1 and 3-7 was placed in a flat weighing bottle and spread into thin layers of <5 mm thick, sealed in a clean container respectively and placed at 60° C. for 5 days; samples were taken and detected on day 0 and day 5, respectively.

The next data set in a line: Solubility in water.
The nature of the next data set: Clarity of solution. Conditions: average of 5 groups. The procedure: (§1) In this test, the angle of repose of the crystalline form I of (R)-4-hydroxy-2-oxo-1-pyrrolidineacetamide prepared by the methods of Examples 1 and 3-7 was measured by an injection method (fixed funnel method). The samples to be tested were poured into the funnel, and they were gently and evenly dropped into the center of the disc to form a cone, when the materials fell freely from the oblique edge of the powder along the edge of the disc, the feedings were stopped, and the angles of repose were determined by the protractor; the sample traits and the clarity of the solution were examined, each example was tested for 5 groups and the average was obtained, the results are as follows: […]

Data set [2] in a line: Angle of repose by injection method (fixed funnel method). The note with it: average of 5 groups. The procedure: as §1

In general, solubility refers to how much of the substance goes into solution per volume. In the case of `NC(=O)CN1C[C@H](O)CC1=O` [(R)-4-hydroxy-2-oxo-1-pyrrolidineacetamide], the “changes of the related substances in 5 days” value is “less than 0.15%” in data set [1] and “tiny” in data set [1] (listed as crystalline form of (R)-4-hydroxy-2-oxo-1-pyrrolidineacetamide). Further, in “Solubility in water”, the solubility is at least 100 mg/mL.
`NC(=O)CN1C[C@H](O)CC1=O` [Example 1, (R)-4-hydroxy-2-oxo-1-pyrrolidineacetamide]: in data set [1], the “Day 0: Related substance” value was found to be 0.23%, the “Day 5: Related substance” value stood at 0.35% and the Related material changes was determined as 0.12%. Further, the clarity of solution entry in “Clarity of solution” is listed as “clarification”. The compound further returned an angle of repose in data set [2] of 28 °.
The matching figures for `NC(=O)CN1C[C@H](O)CC1=O` [Example 3, (R)-4-hydroxy-2-oxo-1-pyrrolidineacetamide]: 0.22%, 0.36%, 0.14%, “clarification” and 28.3 °.
For the compound `NC(=O)CN1C[C@H](O)CC1=O` [Example 4, (R)-4-hydroxy-2-oxo-1-pyrrolidineacetamide], in data set [1], the “Day 0: Related substance” value was 0.26%, the “Day 5: Related substance” value was 0.39% and the Related material changes is recorded as 0.13%. In addition, in “Clarity of solution”, the clarity of solution result is reported as “clarification”. The angle of repose in data set [2] stood at 28.5 °.
The matching figures for `NC(=O)CN1C[C@H](O)CC1=O` [Example 5, (R)-4-hydroxy-2-oxo-1-pyrrolidineacetamide]: 0.25%, 0.37%, 0.12%, “clarification” and 27.8 °.
In the same order, the values of `NC(=O)CN1C[C@H](O)CC1=O` [Example 6, (R)-4-hydroxy-2-oxo-1-pyrrolidineacetamide] are 0.26%, 0.37%, 0.11%, “clarification” and 27.8 °.
The matching figures for `NC(=O)CN1C[C@H](O)CC1=O` [Example 7, (R)-4-hydroxy-2-oxo-1-pyrrolidineacetamide]: 0.22%, 0.33%, 0.11%, “clarification” and 28 °.
